The values that follow come from patent US20040110763A1, “Pyrazolopyridine compound and pharmaceutical use thereof” (priority 2000, published 2004).

Molecules are shown by their SMILES.

One data set concerns ddY mice. Kind of data set: Anticatalepsy activity in mouse (haloperidol-induced catalepsy). It counts as in vivo. To be noted: 3.2 mg/kg orally, ddY mice n=7; haloperidol 0.32 mg/kg i.p. 30 min after compound; measured 30 min after injection, bar test up to 30 sec. How it is done:
Test 2: Anticatalepsy Activity in Mouse
The test compound (3.2 mg/kg) was administered orally with ddY mice (n=7). Then, haloperidol (0.32 mg/kg) was injected intraperitoneally 30 min. after the administration of the compound. Thirty min. after the injection, the cataleptic responses of mice were measured. The forelimbs of each mouse were placed on a 3 cm high, 3 mm wide horizontal bar, and the duration of cataleptic posture was measured for up to 30 sec.

Another data set concerns the target human A2a receptor (Homo sapiens, UniProt P29274). Kind of data set: Adenosine antagonistic activity, radioligand binding, A2a receptor. To be noted: [3H]CGS 21680 20 nM. How it is done: (§1) Test 1: Adenosine Antagonistic Activity
(§2) The adenosine antagonistic activity [Ki(nM)] of the test compound was examined by radioligand binding techniques using 8-cyclopentyl-1,3-dipropylxanthine, [dipropyl-2,3-^3H(N)] ([^3H]DPCPX, 4.5 nM) for human A1 receptor and [^3H]CGS 21680 (20 nM) for human A2a receptor.

The next data set concerns the target T1, human A1 receptor (Homo sapiens, UniProt P30542).
T1 sequence (P30542 1-326): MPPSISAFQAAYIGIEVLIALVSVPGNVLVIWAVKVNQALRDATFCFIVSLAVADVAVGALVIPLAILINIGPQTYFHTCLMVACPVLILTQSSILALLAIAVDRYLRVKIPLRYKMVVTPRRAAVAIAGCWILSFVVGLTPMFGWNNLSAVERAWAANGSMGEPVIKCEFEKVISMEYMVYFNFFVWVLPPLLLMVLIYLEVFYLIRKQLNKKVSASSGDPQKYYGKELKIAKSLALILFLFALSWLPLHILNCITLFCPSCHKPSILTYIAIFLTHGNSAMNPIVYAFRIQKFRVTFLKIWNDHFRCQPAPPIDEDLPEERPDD
Kind of data set: Adenosine antagonistic activity, radioligand binding, A1 receptor. Conditions: [3H]DPCPX 4.5 nM. The method, then: as §1, §2

human A2a receptor, sequence (P29274 whole entry): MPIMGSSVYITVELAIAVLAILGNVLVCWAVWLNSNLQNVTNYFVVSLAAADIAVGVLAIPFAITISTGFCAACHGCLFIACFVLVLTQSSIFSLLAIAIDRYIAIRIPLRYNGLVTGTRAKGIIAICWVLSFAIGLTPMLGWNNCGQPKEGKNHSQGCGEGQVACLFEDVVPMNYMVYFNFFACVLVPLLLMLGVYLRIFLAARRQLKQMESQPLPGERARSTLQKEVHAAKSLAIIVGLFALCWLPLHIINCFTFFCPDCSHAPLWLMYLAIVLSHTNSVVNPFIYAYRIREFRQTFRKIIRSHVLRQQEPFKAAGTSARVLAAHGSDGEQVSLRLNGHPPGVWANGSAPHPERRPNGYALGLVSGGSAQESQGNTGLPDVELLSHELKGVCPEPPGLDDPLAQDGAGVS

What is called Ki is a dissociation constant, usually derived from enzyme kinetics or from competition with a known ligand. Low readings indicate higher affinity, high ones lower affinity. For orientation: melting point means the temperature of the solid-liquid transition. Regarding `COc1ccn2nc(-c3ccccc3)c(-c3ccc(=O)n(C(C)C)n3)c2c1` [Example 2, 5-Methoxy-3-(3-oxo-2-isopropyl-2,3-dihydropyridazin-6-yl)-2-phenylpyrazolo[1,5-a]pyridine], the melting point lay in the range of 180.5 to 181.5 °C. For the same compound, in the data set on ddY mice, the “Manifestation rate of catalepsy (number of mouse)” value (“Manifestation rate of catalepsy” below) is on record as 0/7. Also, at human A2a receptor, the Ki came out at 1.38 nM. Further, the inhibition constant Ki on human A1 receptor is 0.15 nM.

`CC(C)n1nc(-c2c(-c3ccccc3)nn3ccc(OCCN(C)C)cc23)ccc1=O` [Example 4, 5-(2-Dimethylamino)ethoxy-3-(3-oxo-2-isopropyl-2,3-dihydropyridazin-6-yl)-2-phenylpyrazolo[1,5-a]pyridine] gave a melting point of 138 to 139 °C. In addition, in the data set with ddY mice, the “Manifestation rate of catalepsy” value is reported as 0/7. For the same compound, at human A2a receptor, the inhibition constant Ki was 2.35 nM. The Ki at human A1 receptor came to 0.98 nM.

Turning to `CC(C)n1nc(-c2c(-c3ccccc3)nn3ccc(C(=O)N(C)C)cc23)ccc1=O` [Example 72, N,N-dimethyl-3-(3-oxo-2-isopropyl-2,3-dihydropyridazin-6-yl)-2-phenylpyrazolo[1,5-a]pyridine-5-carboxamide], the “Manifestation rate of catalepsy” value with ddY mice is on record as 0/7. The Ki on human A2a receptor amounted to 1.68 nM; at human A1 receptor, 0.25 nM.

`CC(C)n1nc(-c2c(-c3ccccc3)nn3ccc(O)cc23)ccc1=O` [Example 3, 5-Hydroxy-3-(3-oxo-2-isopropyl-2,3-dihydropyridazin-6-yl)-2-phenylpyrazolo[1,5-a]pyridine] registered a melting point above 250 °C. Also, the affinity on human A2a receptor, expressed as Ki, was 1.05 nM. The same compound showed a Ki on human A1 receptor of 0.14 nM.

The compound `CC(C)n1nc(-c2c(-c3ccccc3)nn3ccc(Oc4ccccn4)cc23)ccc1=O` [Example 31, 5-(2-pyridinyloxy)-3-(3-oxo-2-isopropyl-2,3-dihydropyridazin-6-yl)-2-phenylpyrazolo[1,5-a]pyridine] showed a melting point of 140.5 to 141.5 °C. Moreover, the “Manifestation rate of catalepsy” value with ddY mice is 0/7. The Ki at human A2a receptor was 1.44 nM. The inhibition constant Ki on human A1 receptor came out at 0.42 nM.

As to `CC(C)n1nc(-c2c(-c3ccccc3)nn3ccc(N4CCN(C)CC4)cc23)ccc1=O` [Example 96, 5-(4-methyl-1-piperazinyl)-3-(3-oxo-2-isopropyl-2,3-dihydropyridazin-6-yl)-2-phenylpyrazolo[1,5-a]pyridine], the melting point was in the range of 170 to 171 °C. Further, the “Manifestation rate of catalepsy” value with ddY mice is on record as 0/7. Moreover, the affinity at human A2a receptor, expressed as Ki, was 1.28 nM. On human A1 receptor, this compound came in with an inhibitory constant (Ki) of 0.24 nM.

`CC(C)n1nc(-c2c(-c3ccccc3)nn3ccc(NC(=O)OC(C)(C)C)cc23)ccc1=O` [Example 145, tert-butyl 3-(3-oxo-2-isopropyl-2,3-dihydropyridazin-6-yl)-2-phenylpyrazolo[1,5-a]pyridin-5-ylcarbamate] displayed a melting point of 208 to 210 °C. For the same compound, the “Manifestation rate of catalepsy” value in the data set with ddY mice is 0/7. The same compound showed a Ki on human A2a receptor of 1.03 nM. This compound also gave a Ki on human A1 receptor of 0.48 nM.

For the compound `CCOCCNC(=O)c1ccn2nc(-c3ccccc3)c(-c3ccc(=O)n(C(C)C)n3)c2c1` [Example 78, N-(2-Ethoxyethyl)-3-(3-oxo-2-isopropyl-2,3-dihydropyridazin-6-yl)-2-phenylpyrazolo[1,5-a]pyridine-5-carboxamide], the melting point lay in the range of 149 to 150 °C.

`CC(C)n1nc(-c2c(-c3ccccc3)nn3ccc(OC4CCN(C(=O)OC(C)(C)C)CC4)cc23)ccc1=O` [Example 29, tert-Butyl 4-{[3-(3-oxo-2-isopropyl-2,3-dihydropyridazin-6-yl)-2-phenylpyrazolo[1,5-a]pyridin-5-yl]oxy}-1-piperidinecarboxylate] registered a melting point of 176 to 179 °C.

With `CCOc1cccn2nc(-c3ccccc3)c(-c3ccc(=O)n(C(C)C)n3)c12` [Example 196, 4-ethoxy-3-(3-oxo-2-isopropyl-2,3-dihydropyridazin-6-yl)-2-phenylpyrazolo[1,5-a]pyridine], the melting point lay in the range of 157 to 158 °C.

As to `CC(C)n1nc(-c2c(-c3ccccc3)nn3cccc(OCCN(C)C)c23)ccc1=O` [Example 198, 4-(2-(Dimethylamino)ethoxy)-3-(3-oxo-2-isopropyl-2,3-dihydropyridazin-6-yl)-2-phenylpyrazolo[1,5-a]pyridine], the melting point lay within 137 to 138 °C.

`CC(C)n1nc(-c2c(-c3ccccc3)nn3ccc(N4CCN(S(C)(=O)=O)CC4)cc23)ccc1=O` [Example 110, 5-[4-(Methylsulfonyl)-1-piperazinyl]-3-(3-oxo-2-isopropyl-2,3-dihydropyridazin-6-yl)-2-phenylpyrazolo[1,5-a]pyridine] registered a melting point of 219 to 220 °C.

Regarding `CC(C)n1nc(-c2c(-c3ccccc3)nn3ccc(C#N)cc23)ccc1=O` [Example 71, 3-(3-oxo-2-isopropyl-2,3-dihydropyridazin-6-yl)-2-phenylpyrazolo[1,5-a]pyridine-5-carbonitrile], the melting point is 202 to 203 °C.

`COc1cccn2nc(-c3ccccc3)c(-c3ccc(=O)n(C(C)C)n3)c12` [Example 194, 4-Methoxy-3-(3-oxo-2-isopropyl-2,3-dihydropyridazin-6-yl)-2-phenylpyrazolo[1,5-a]pyridine] displayed a melting point of 185 to 186 °C.
